Target: T1, CCR9 (Homo sapiens, UniProt P51686)
T1 construct: chemokine expressing cells (such as THP-1 cells for CCR2 assay or MOLT-4 cells for CCR9 assay); host or cells: MOLT-4
T1 sequence (P51686 1-369): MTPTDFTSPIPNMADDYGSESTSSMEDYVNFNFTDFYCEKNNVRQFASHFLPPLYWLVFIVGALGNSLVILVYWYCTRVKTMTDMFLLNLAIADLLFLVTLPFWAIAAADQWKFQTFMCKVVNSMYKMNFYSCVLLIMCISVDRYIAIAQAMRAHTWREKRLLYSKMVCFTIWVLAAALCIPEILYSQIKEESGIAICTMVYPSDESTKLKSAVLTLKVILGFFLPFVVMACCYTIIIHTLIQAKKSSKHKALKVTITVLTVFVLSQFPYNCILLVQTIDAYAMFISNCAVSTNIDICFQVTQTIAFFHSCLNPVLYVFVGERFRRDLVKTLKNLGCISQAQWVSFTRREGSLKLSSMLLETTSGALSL
Experiment: CCR9 activity in one of the chemotaxis, binding or calcium mobilization assays
Type: cell-based
Details: assay not specified per compound
Procedure: Conventional migration assay was used to determine the efficacy of potential receptor antagonists in blocking migration mediated through chemokines (such as CCR2 or CCR9). This assay was routinely performed using the ChemoTX® microchamber system with a 5-μm pore-sized polycarbonate membrane. To begin such an assay, chemokine expressing cells (such as THP-1 cells for CCR2 assay or MOLT-4 cells for CCR9 assay) were harvested by centrifugation of cell suspension at 1000 RPM on a GS-6R Beckman centrifuge. The cell pellet was resuspended in chemotaxis buffer (HBSS with 0.1% BSA) at 10×10^6 cells/mL for CCR2 assay (5×10^6 cells/mL for CCR9 assay). Test compounds at desired concentrations were prepared from 10 mM stock solutions by serial dilutions in chemotaxis buffer. An equal volume of cells and compounds were mixed and incubated at room temperature for 15 minutes. Afterwards, 20 μL of the mixture was transferred onto the porous membrane of a migration microchamber, with 29 μL of chemokine ligand (0.1 nM chemokine MCP-1 protein for CCR2 assay or […] chemokine TECK protein for CCR9 assay) placed at the lower chamber. Following an incubation at 37° C. (90-minute for CCR2; 150-minute for CCR9), during which cells migrated against the chemokine gradient, the assay was terminated by removing the cell drops from atop the filter. To quantify cells migrated across the membrane, 5 μL of 7×CyQUANT® solution was added to each well in the lower chamber, and the fluorescence signal measured on a Spectrafluor Plus fluorescence plate reader (TECAN, Durham, N.C.). The degree of inhibition was determined by comparing migration signals between compound-treated and untreated cells. IC50 calculation was further performed by non-linear squares regression analysis using Graphpad Prism (Graphpad Software, San Diego, Calif.).
Calcium flux assay measures an increase in intracellular calcium following ligand-induced receptor activation. In the screen of chemokine antagonists, it was used as a secondary assay carried out on a FLIPR® machine (Molecular Devices, Mountain View, Calif.). To begin an assay, chemokine expressing cells (such as THP-1 cells for CCR2 assay or MOLT-4 cells for CCR9 assay) were harvested by centrifugation of cell suspension, and resuspended to 1.5×10^6 cells/mL in HBSS (with 1% fetal calf serum). Cells were then labeled with a calcium indicator dye Fluo-4 AM for 45 minutes at 37° C. with gentle shaking. Following incubation, cells were pelletted, washed once with HBSS and resuspended in the same buffer at a density of 1.6×10^6 cells/mL. One hundred microliters of labeled cells were mixed with 10 μL of test compound at the appropriate concentrations on an assay plate. Chemokine protein (MCP-1 at a final concentration of 0.1 nM for CCR2 assay or TECK at a final concentration of 25 nM for CCR9 assay) to activate the receptor. The degree of inhibition was determined by comparing calcium signals between compound-treated and untreated cells. IC50 calculations were further performed by non-linear squares regression analysis using Graphpad Prism (Graphpad Software, San Diego, Calif.). […]
In the tables below, structures and activity are provided for representative compounds described herein. Activity is provided as follows for either or both of the chemotaxis assay and/or calcium mobilization assays, described above.

SMILES | IC50
CC(C)n1cnnc1-c1cc(Cl)ccc1NS(=O)(=O)c1ccc(C(C)(C)C)cc1 [Compound 1, 4-tert-butyl-N-(4-chloro-2-(4-isopropyl-4H-1,2,4-triazol-3-yl)phenyl)benzenesulfonamide] | < 1 µM
CC(C)(C)c1ccc(S(=O)(=O)Nc2ccc(Cl)cc2-c2nncn2-c2ccccc2)cc1 [Compound 2, 4-tert-butyl-N-(4-chloro-2-(4-phenyl-4H-1,2,4-triazol-3-yl)phenyl)benzenesulfonamide] | < 1 µM
Cc1nnc(-c2cc(Cl)ccc2NS(=O)(=O)c2ccc(C(C)(C)C)cc2)n1C(C)C [Compound 3, 4-tert-butyl-N-(4-chloro-2-(4-isopropyl-5-methyl-4H-1,2,4-triazol-3-yl)phenyl)benzenesulfonamide] | < 1 µM
Cc1nnc(-c2cc(Cl)ccc2NS(=O)(=O)c2ccc(C(C)(C)C)cc2)n1-c1ccccc1 [Compound 4, 4-tert-butyl-N-(4-chloro-2-(5-methyl-4-phenyl-4H-1,2,4-triazol-3-yl)phenyl)benzenesulfonamide] | < 1 µM
CCn1c(C)nnc1-c1cc(Cl)ccc1NS(=O)(=O)c1ccc(C(C)(C)C)cc1 [Compound 5, 4-tert-butyl-N-(4-chloro-2-(4-ethyl-5-methyl-4H-1,2,4-triazol-3-yl)phenyl)benzenesulfonamide] | < 1 µM
Cc1nnc(-c2cc(Cl)ccc2NS(=O)(=O)c2ccc(C(C)(C)C)cc2)n1C [Compound 6, 4-tert-butyl-N-(4-chloro-2-(4,5-dimethyl-4H-1,2,4-triazol-3-yl)phenyl)benzenesulfonamide] | < 1 µM
Cc1nnc(-c2cc(Cl)ccc2NS(=O)(=O)c2ccc(C(C)(C)C)cc2)n1C1CC1 [Compound 7, 4-tert-butyl-N-(4-chloro-2-(4-cyclopropyl-5-methyl-4H-1,2,4-triazol-3-yl)phenyl)benzenesulfonamide] | < 1 µM
CC(C)c1nnc(-c2cc(Cl)ccc2NS(=O)(=O)c2ccc(C(C)(C)C)cc2)n1C [Compound 8, 4-tert-butyl-N-(4-chloro-2-(5-isopropyl-4-methyl-4H-1,2,4-triazol-3-yl)phenyl)benzenesulfonamide] | < 1 µM
Cn1c(-c2cc(Cl)ccc2NS(=O)(=O)c2ccc(C(C)(C)C)cc2)nnc1C1CCOCC1 [Compound 9] | < 1 µM
COCc1nnc(-c2cc(Cl)ccc2NS(=O)(=O)c2ccc(C(C)(C)C)cc2)n1C [Compound 10, 4-tert-butyl-N-(4-chloro-2-(5-(methoxymethyl)-4-methyl-4H-1,2,4-triazol-3-yl)phenyl)benzenesulfonamide] | < 1 µM
CC(C)c1nnc(-c2cc(Cl)ccc2NS(=O)(=O)c2ccc(C(C)(C)C)cc2)n1C(C)C [Compound 11, 4-tert-butyl-N-(4-chloro-2-(4,5-diisopropyl-4H-1,2,4-triazol-3-yl)phenyl)benzenesulfonamide] | < 1 µM
Cc1nnc(-c2cc(Cl)ccc2NS(=O)(=O)c2ccc(C(C)(C)C)cc2)n1C1CCOCC1 [Compound 12] | < 1 µM
CCc1nnc(-c2cc(Cl)ccc2NS(=O)(=O)c2ccc(C(C)(C)C)cc2)n1C(C)C [Compound 13, 4-tert-butyl-N-(4-chloro-2-(5-ethyl-4-isopropyl-4H-1,2,4-triazol-3-yl)phenyl)benzenesulfonamide] | < 1 µM
Cc1nnc(-c2cc(Cl)ccc2NS(=O)(=O)c2ccc(C(C)(C)C)cc2)n1C1CCCC1 [Compound 14, 4-tert-butyl-N-(4-chloro-2-(4-cyclopentyl-5-methyl-4H-1,2,4-triazol-3-yl)phenyl)benzenesulfonamide] | < 1 µM
Cc1nnc(-c2cc(Cl)ccc2NS(=O)(=O)c2ccc(OC(C)C)cc2)n1C(C)C [Compound 15, N-(4-chloro-2-(4-isopropyl-5-methyl-4H-1,2,4-triazol-3-yl)phenyl)-4-isopropoxybenzenesulfonamide] | < 1 µM
Cc1nnc(-c2cc(Cl)ccc2NS(=O)(=O)c2ccc(C(C)(C)C)cc2)n1-c1cc[nH]n1 [Compound 16] | < 1 µM
CCn1c(C)nnc1-c1cc(Cl)ccc1NS(=O)(=O)c1ccc(OC(C)C)cc1 [Compound 17, N-(4-chloro-2-(4-ethyl-5-methyl-4H-1,2,4-triazol-3-yl)phenyl)-4-isopropoxybenzenesulfonamide] | < 1 µM
CC(C)n1cnnc1-c1ccc(Cl)cc1NS(=O)(=O)c1ccc(C(C)(C)C)cc1 [Compound 18, 4-tert-butyl-N-(5-chloro-2-(4-isopropyl-4H-1,2,4-triazol-3-yl)phenyl)benzenesulfonamide] | < 1 µM
Cc1nnc(-c2cc(Cl)ccc2NS(=O)(=O)c2ccc(C(C)(C)C)cc2)n1CC(C)C [Compound 19, 4-tert-butyl-N-(4-chloro-2-(4-isobutyl-5-methyl-4H-1,2,4-triazol-3-yl)phenyl)benzenesulfonamide] | < 1 µM
Cc1nnc(-c2cc(Cl)ccc2NS(=O)(=O)c2ccc(C(C)(C)C)cc2)n1C1CCNCC1 [Compound 20] | < 1 µM
COCc1nnc(-c2cc(Cl)ccc2NS(=O)(=O)c2ccc(C(C)(C)C)cc2)n1C1CCOCC1 [Compound 21, 4-tert-butyl-N-(4-chloro-2-(5-(methoxymethyl)-4-(tetrahydro-2H-pyran-4-yl)-4H-1,2,4-triazol-3-yl)phenyl)benzenesulfonamide] | < 1 µM
CCn1cnnc1-c1cc(F)c(F)cc1NS(=O)(=O)c1ccc(C(C)(C)C)cc1 [Compound 22, 4-tert-butyl-N-(2-(4-ethyl-4H-1,2,4-triazol-3-yl)-4,5-difluorophenyl)benzenesulfonamide] | < 1 µM
CCn1cnnc1-c1ccc(F)cc1NS(=O)(=O)c1ccc(C(C)(C)C)cc1 [Compound 23, 4-tert-butyl-N-(2-(4-ethyl-4H-1,2,4-triazol-3-yl)-5-fluorophenyl)benzenesulfonamide] | < 1 µM
Cc1nnc(-c2ccc(F)cc2NS(=O)(=O)c2ccc(C(C)(C)C)cc2)n1C(C)C [Compound 24, 4-tert-butyl-N-(5-fluoro-2-(4-isopropyl-5-methyl-4H-1,2,4-triazol-3-yl)phenyl)benzenesulfonamide] | < 1 µM
CCn1cnnc1-c1c(NS(=O)(=O)c2ccc(C(C)(C)C)cc2)ccc(Cl)c1F [Compound 25, 4-tert-butyl-N-(4-chloro-2-(4-ethyl-4H-1,2,4-triazol-3-yl)-3-fluorophenyl)benzenesulfonamide] | < 1 µM
Cc1nnc(-c2cc(Cl)ccc2NS(=O)(=O)c2ccc(C(C)(C)C)cc2)n1[C@@H](C)CO [Compound 26] | < 1 µM
CC(=O)NCCn1c(C)nnc1-c1cc(Cl)ccc1NS(=O)(=O)c1ccc(C(C)(C)C)cc1 [Compound 27, N-(2-(3-(2-(4-tert-butylphenylsulfonamido)-5-chlorophenyl)-5-methyl-4H-1,2,4-triazol-4-yl)ethyl)acetamide] | < 1 µM
Cc1nnc(-c2c(NS(=O)(=O)c3ccc(C(C)(C)C)cc3)ccc(Cl)c2F)n1C [Compound 28, 4-tert-butyl-N-(4-chloro-2-(4,5-dimethyl-4H-1,2,4-triazol-3-yl)-3-fluorophenyl)benzenesulfonamide] | < 1 µM
CCn1c(C)nnc1-c1c(NS(=O)(=O)c2ccc(C(C)(C)C)cc2)ccc(Cl)c1F [Compound 29, 4-tert-butyl-N-(4-chloro-2-(4-ethyl-5-methyl-4H-1,2,4-triazol-3-yl)-3-fluorophenyl)benzenesulfonamide] | < 1 µM
Cn1cnnc1-c1cc(Cl)ccc1NS(=O)(=O)c1ccc(C(C)(C)C)cc1 [Compound 30, 4-tert-butyl-N-(4-chloro-2-(4-methyl-4H-1,2,4-triazol-3-yl)phenyl)benzenesulfonamide] | < 1 µM
